Assay results reported in patent US7351294B2, “Surface cleaner” (Reckitt Benckiser (UK) Limited, priority 1999, dated 2008).

Legend:
[1] = cited from earlier work
[2] = Activity test: decolourisation of target dye gentian violet by sensitised TiO2 sol on an overhead projector, followed by UV/Visible spectrum
Protocol: A mixture of TiO2 sol (1 ml, 1 g/L) and tris(2,2′-dipyridyl4,4′-dicarboxylate)ruthenium(II)(dichloride) (4 ml, c=3.4×10^−5M) was stirred for about 1 minute using a rotamixer. The pH was recorded then the target dye gentian violet (GV dissolved in 20% ethanol solution, 0.05 ml or 0.08 ml, 0.03 wt/v %) was added and the mixture was stirred again. The initial colour of the sensitised TiO2 sol was yellow. Addition of gentian violet produced a purple colour at pH 3 and higher. A UV/Visible spectrum was taken at this stage. The vial containing the mixture was placed onto an overhead projector (2 cm height from the glass, in order to reduce heat). A UV/Visible spectrum was used to observe the colour change over a period of time at lamda max of the Target dye (Gentian violet or crystal violet)=588 nm in the white light spectrum. (OHP used: Model Ensign. Lamp:24V-250 W-3860 lux)
In order to get quantitative data a UV/Visible spectrum was taken at different times. […]

[3] = acid conditions (pH 3); cited from earlier work

Row | Compound | Sensitising properties ([1]; pH 7 compared with lower pH) | Sensitising agent for charge injection into titania ([1]; acid pH, compared to tris(2,2′-bipridyl)ruthenium (II) dichloride) | Decolourisation on repeated addition of gentian violet (0.08 ml) ([2]; Example 19, with TiO2 sol (5 ml, 10 g/L), slower rate than on the first addition) | Activity with other light sources versus overhead projector ([2]; with TiO2 sol, daylight bulbs 40 W and 100 W, tungsten filament 35 W and 100 W, fluorescent tube 8 W) | Activity in sensitised photocatalytic oxidation of herbicides [3]
1 | [Cl-].[Cl-].[Ru+2].c1ccc(-c2ccccn2)nc1.c1ccc(-c2ccccn2)nc1.c1ccc(-c2ccccn2)nc1 [tris(2,2′-bipridyl)ruthenium (II) dichloride, reference compound] | improve | – | – | – | –
2 | tris(2,2′-bipyridyl-4,4′-dicarboxylate)ruthenium (II) dichloride | – | superior | still decolourising on the third addition | still works with all light sources tried albeit much slower | active
